Laboratory results published in ChEMBL document CHEMBL3046808, “Novel 2-(E)-substituted benzylidene-6-(N-substituted aminomethyl)cyclohexanones and cyclohexanols as analgesic and anti-inflammatory agents” (2013).

Key:
Type in all cases: functional
Rattus norvegicus = experiment: Anti-inflammatory activity in Wistar Rattus norvegicus (rat) assessed as inhibition of carrageenan-induced paw edema at 200 mg/kg, po administered 1 hr prior to carrageenan-challenge measured after 3 hr relative to untreated control
Mus musculus [1] = experiment: Anti-inflammatory activity in Kunming Mus musculus (mouse) assessed as inhibition of xylene-induced ear swelling at 200 mg/kg, po administered 1 hr prior to xylene challenge measured after 30 min relative to untreated control
Mus musculus [2] = experiment: Analgesic activity in Kunming Mus musculus (mouse) assessed as increase in pain threshold at 200 mg/kg, po after 1 hr by hot plate method (reference value: 4.2%)
Mus musculus [3] = experiment: Analgesic activity in Kunming Mus musculus (mouse) assessed as inhibition of acetic acid-induced writhing at 200 mg/kg, po administered 1 hr prior to acetic acid challenge measured for 15 min relative to untreated control

Row | SMILES | inhibition in vivo at 200 mg/kg (Rattus norvegicus) | inhibition in vivo at 200 mg/kg (Mus musculus [1]) | Activity (Mus musculus [2]) | inhibition in vivo at 200 mg/kg (Mus musculus [3])
1 | Cc1cccc(N(C)CC2CCC/C(=C\c3ccc(S(C)(=O)=O)cc3)C2=O)c1 (configuration not stated) | 36.2% | 36.7% | 109.98% | 72.8%
2 | Cc1ccc(NCC2CCC/C(=C\c3ccccc3)C2=O)cc1 (configuration not stated) | 72.3% | 56.4% | 166.19% | 82.8%
3 | CN(CC1CCC/C(=C\c2ccccc2)C1=O)c1ccccc1 (configuration not stated) | 76.6% | 49.7% | 109.59% | 69.7%
4 | Cc1ccc(N(C)CC2CCC/C(=C\c3ccccc3)C2=O)cc1 (configuration not stated) | 25.5% | 18.2% | 146.12% | 81%
5 | Cc1cccc(N(C)CC2CCC/C(=C\c3ccccc3)C2=O)c1 (configuration not stated) | 46.8% | 44.9% | 108.45% | 76.7%
6 | Cc1ccc(/C=C2\CCCC(CN(C)c3ccccc3)C2=O)cc1 (configuration not stated) | 44.7% | 39.5% | 79.04% | 68.2%
7 | Cc1ccc(/C=C2\CCCC(CN(C)c3ccc(C)cc3)C2=O)cc1 (configuration not stated) | 38.3% | 27.6% | 71.6% | 76.5%
8 | Cc1ccc(/C=C2\CCCC(CN(C)c3cccc(C)c3)C2=O)cc1 (configuration not stated) | 36.2% | 35.4% | 75.5% | 75.8%
9 | CN(CC1CCC/C(=C\c2ccc(S(C)(=O)=O)cc2)C1=O)c1ccccc1 (configuration not stated) | 51.1% | 46.9% | 142.7% | 81%
10 | Cc1ccc(N(C)CC2CCC/C(=C\c3ccc(S(C)(=O)=O)cc3)C2=O)cc1 (configuration not stated) | 31.9% | 27% | 155.12% | 84.5%
11 | Cc1ccc(N(C)CC2CCC/C(=C\c3ccccc3)C2(O)c2ccccc2)cc1 (racemic) | 59.6% | 66.7% | 70.08% | 64.2%
12 | Cc1cccc(N(C)CC2CCC/C(=C\c3ccccc3)C2(O)c2ccccc2)c1 (racemic) | 36.2% | 23.1% | 83.22% | 70.6%
13 | COc1cccc(C2(O)/C(=C/c3ccccc3)CCCC2CN(C)c2ccccc2)c1 (racemic) | 38.3% | 34.7% | 162.71% | 82.2%
14 | COc1cccc(C2(O)/C(=C/c3ccccc3)CCCC2CN(C)c2ccc(C)cc2)c1 (racemic) | 57.5% | 41.5% | 110.54% | 77.8%
15 | COc1cccc(C2(O)/C(=C/c3ccccc3)CCCC2CN(C)c2cccc(C)c2)c1 (racemic) | 44.7% | 36% | 116.52% | 79.9%
16 | COc1ccc(C2(O)/C(=C/c3ccccc3)CCCC2CN(C)c2ccccc2)cc1 (racemic) | 38.3% | 26.5% | 121.45% | 75.7%
17 | COc1ccc(C2(O)/C(=C/c3ccccc3)CCCC2CN(C)c2ccc(C)cc2)cc1 (racemic) | 21.3% | 26.5% | 117.46% | 78.7%
18 | COc1cccc(C2(C)/C(=C/c3ccc(C)cc3)CCCC2CN(C)c2ccccc2)c1 (racemic) | 25.5% | 18% | 153.01% | 80.9%
19 | COc1cccc(C2(O)/C(=C/c3ccc(C)cc3)CCCC2CN(C)c2ccc(C)cc2)c1 (racemic) | 21.3% | 22.9% | 125.34% | 81.6%
20 | COc1ccc(C2(O)/C(=C/c3ccc(C)cc3)CCCC2CN(C)c2ccccc2)cc1 (racemic) | 17% | 16.3% | 106.84% | 72.1%
21 | COc1ccc(C2(O)/C(=C/c3ccc(C)cc3)CCCC2CN(C)c2ccc(C)cc2)cc1 (racemic) | 29.8% | 29.9% | 93.41% | 62.2%
22 | COc1ccc(C2(O)/C(=C/c3ccc(C)cc3)CCCC2CN(C)c2cccc(C)c2)cc1 (racemic) | 29.8% | 24.5% | 93.52% | 74.2%
23 | CC(C)Cc1ccc(C(C)C(=O)O)cc1 (configuration not stated) [IBUPROFEN] | 53.2% | 40.1% | 158.56% | 84.1%
